The assay deals with TC-1 luc tumors. The assay can be described thus: TC-1 luc tumor model with E7 RNA-LPX and cisplatin chemotherapy: tumor growth and survival. The class given is in vivo, C57BL/6 mice. Particulars: 40 μg RNA-LPX day 16, 80 μg cisplatin or PBS i.p. day 22 and 28. The procedure: For therapeutic tumor experiments, C57BL/6 mice were injected with 1×10^5 TC-1 or TC-1 luc tumor cells and 5×10^5 C3 tumor cells subcutaneously into to the right flank. Tumor growth was measured unblinded with a caliper every three to four days and tumor volumes calculated by (a^2 x b)/2 (a, width; b, length). Mice were immunized intravenously with 40 μg E7 or control (OVA) RNA-LPX. Arrows in vaccination schemes indicate immunization. Mice were randomized according to their tumor size prior RNA-LPX immunization. The orthovoltage X-ray source XRAD320 (Precision X-Ray Inc.) was used for tumor irradiation, irradiating tumors locally with different doses at a dose rate of 0.47 Gy/min. Biological effective doses were calculated using the formula
In some experiments, mice received 80 μg cisplatin chemotherapy or PBS intraperitoneal (i.p.) twice after RNA-LPX vaccination.
For Example 9, Statistical analysis was performed with GraphPad PRISM 9. For tumor growth analysis, two-way analysis of variance (ANOVA) was performed and when determined significant (p<0.05), Tukey's multiple comparison test run.

The structures appear in SMILES notation.

`N.N.[Cl][Pt][Cl]` [Cisplatin, cis-diamminedichloroplatinum (II)]: the tumor growth entry is given as “only slightly improved tumor growth”.

The values are drawn from US12599660B2, “Therapeutic RNA for HPV-positive cancer” (priority 2020, dated 2026).
